Columns and labels:
[1] = concentration of 0.01%; vegetable oils subjected to heating; cited from earlier work
[2] = Antioxidant activity in relation to ascorbic acid by the ferricyanide spectrophotometric method; details: 2% solution in distilled water
Excerpt: Materials and methods. The test item was 2% seignette salt solution in distilled water.

[3] = FtCl (Ft Cleaning) 300 cleaning and whitening ability test on Martindale tester, Example 1; details: Δ by 4 cycles values
Protocol: To determine resistance of dental enamel to attrition on a Martindale tester (hereinafter—Tester) the sets were analyzed—samples of solutions of piezoelectric materials and tooth brushes based on the following indicator: • FtCl (Ft Cleaning) 300, characterizes the cleaning ability of a solution (paste) by making 300 cleaning movements (mah) in a suspension of piezoelectric materials. The indicator is used as an analog of PCR (Pellicle Cleaning Ration) and it enables quantitative assessment of the cleaning and whitening action of a solution (paste) in case of a single-time cleaning. […]
Determination of FtCl300 for a solution of piezoelectric materials: • path: ∞L=25 mm, • rate 150 mah/min, • impact—300 mah, • brush load 325 g, • minimum quantity of parallel determinations—one per each paste with a test brush, • a test tooth brush: tooth brush PROFESSIONAL COMPLETE of medium hardness, • use one brush head for not more than 3-4 cycles, i.e. for 900-1200 mah, owing to wear out of bristles; then replace the brush head with a new one. […]
FtCl300 values were calculated by the formula: FtCl300=100*(Lcl−Lcol)/(Lin−Lcol) Preparation of Solutions: • 1. […]
Test results. […] In this model any color is determined with lightness (L-Lightness) and two chromatic components: channel a—colors from dark green through gray to purple, channel b—colors from blue through gray to yellow. […]

Row | Structure (SMILES) | antioxidant effect [1] | Antioxidant activity (AOA) [2] [mol-eq/l] | Antioxidant activity, AOA in relation to vitamin C (higher than vitamin C) [2] [%] | difference in FtCl300 to barium titanate [3]
1 | O=C([O-])C(O)C(O)C(=O)[O-].[Na+].[Na+] (stereo not shown) [sodium tartrate] | marked antioxidant effect |  |  | 
2 | O.O.O.O.O=C([O-])C(O)C(O)C(=O)[O-].[K+].[Na+] (stereo not shown) [seignette salt, potassium sodium tartrate KNaC4H4O6·4H2O] |  | 0.00013 | 13.7 | 0.19

Source: patent publication US12616646B2, “Use of rochelle salt” (SKYLAB AG, priority 2021, dated 2026)
